6 substances from patent US20230263822A1, “MODULATION OF FACTOR 11 EXPRESSION” (Ionis Pharmaceuticals, Inc., priority 2008, published 2023) can be followed below.

Strand notation (5' to 3'): a small letter for the sugar, then the base; units joined by * are phosphorothioate-linked, units joined directly phosphodiester-linked; [ ] holds rarer units or linkages, { } end groups; capitals alone tell only the bases. e = 2'-O-(2-methoxyethyl) (MOE); [5mC] = 5-methylcytosine; d = 2'-deoxy (DNA)

Details of data set [1]: species or system CD1 mice. The conditions noted are these: mouse, in vivo. As for the experimental part: Five mice from each group were sacrificed 3 days, 28 days and 56 days following the final dose. Livers were harvested for analysis.
The concentration of the full-length oligonucleotide as well as the total oligonucleotide concentration (including the degraded form) was measured. The method used is a modification of previously published methods (Leeds et al., 1996; Geary et al., 1999) which consist of a phenol-chloroform (liquid-liquid) extraction followed by a solid phase extraction. An internal standard (ISIS 355868, a 27-mer 2′-O-methoxyethyl modified phosphorothioate oligonucleotide, […], designated herein as SEQ ID NO: 270) was added prior to extraction. […] Half-lives were then calculated using WinNonlin software ([…]).
The results are presented in Tables 68 and 69, expressed as μg/g liver tissue.

Details of data set [2]: species or system Sprague-Dawley rats. The conditions noted are these: rat, in vivo. The procedure:
Three days after the last dose, the rats were sacrificed and livers and kidneys were collected for analysis.
The concentration of the full-length oligonucleotide as well as the total oligonucleotide concentration (including the degraded form) was measured. The method used is a modification of previously published methods (Leeds et al., 1996; Geary et al., 1999) which consist of a phenol-chloroform (liquid-liquid) extraction followed by a solid phase extraction. An internal standard (ISIS 355868, a 27-mer 2′-O-methoxyethyl modified phosphorothioate oligonucleotide, […], designated herein as SEQ ID NO: 270) was added prior to extraction. […] The results are presented in Tables 77 and 78, expressed as μg/g liver or kidney tissue. Half-lives were then calculated using WinNonlin software ([…]).

A short description of data set [3]: Tolerability in Sprague-Dawley rats: body weight and organ weight (Example 35). Type of data set: in vivo. The conditions noted are these: 50 mg/kg s.c. twice per week for 6 weeks; for Percent change: Body weight: percent change over the weights at the start of the study; for Percent change in organ weight: Kidney / Percent change in organ weight: Liver / Percent change in organ weight: Spleen: vs saline control, normalized to body weight. The source says:
Urine samples were taken before the start of treatment.
The body weights are presented in Table 71 and are expressed as a percent change over the weights taken at the start of the study.

The nature of data set [4]: Tolerability in CD1 mice: organ weight (Example 33). The data set is classed as in vivo. The following applies: 50 mg/kg s.c. twice a week, vs PBS control, normalized to body weight. The procedure:
Three days after the last dose was administered to all groups, the mice were sacrificed.

Data set [5] can be described thus: Body and organ weights of cynomolgus monkeys (Example 46). Set-up: Liver weight / Spleen weight / Kidney weight: unit not given here. The data set is classed as in vivo. As for the experimental part:
(§1) Groups, each consisting of two male and two female monkeys, were injected subcutaneously with 25 mg/kg of ISIS 416850, ISIS 449709, ISIS 445522, ISIS 449710, ISIS 449707, ISIS 449711, ISIS 449708, 416858, and ISIS 445531. Antisense oligonucleotide was administered to the monkeys at 25 mg/kg three times per week for week 1 and 25 mg/kg twice per week for weeks 2 to 8. A control group, consisting of two male and two female monkeys was injected subcutaneously with PBS according to the same dosing regimen. Body weights were taken 14 days and 7 days before the start of treatment and were then measured weekly throughout the treatment period. Blood samples were collected 14 days and 5 days before the start of treatment and subsequently several times during the dosing regimen for PT and aPTT measurements, and measurement of various hematologic factors. On day 55, the monkeys were euthanized by exsanguination while under deep anesthesia, and organs harvested for further analysis.
Organ weights were taken after the animals were euthanized on day 55, and livers, kidneys and spleens were harvested.

The subject of data set [6] is IL-1β, IL-6, IFN-γ, TNF-α, IL-8, MIP-1α, MCP-1, MIP-1β, RANTES. Description: Cytokine and chemokine assays in cynomolgus monkeys (Example 46). Type of data set: in vivo. As for the experimental part:
as §1
Blood samples obtained from all monkey groups were sent to Pierce Biotechnology (Woburn, Mass.) for measurements of chemokine and cytokine levels. Levels of IL-1β, IL-6, IFN-γ, and TNF-α were measured using the respective primate antibodies and levels of IL-8, MIP-1α, MCP-1, MIP-1β and RANTES were measured using the respective cross-reacting human antibodies. Measurements were taken 14 days before the start of treatment and on day 55, when the monkeys were euthanized.

Data set [7] is described as follows: Kidney function, BUN, urine protein to creatinine ratio in cynomolgus monkeys (Example 46). Type of data set: in vivo. The procedure:
as §1
To evaluate the impact of ISIS oligonucleotides on kidney function, urine samples were collected on different days. […] The ratio of urine protein to creatinine in urine samples after antisense oligonucleotide treatment was also calculated for day 49 and results are presented in Table 156. As observed in Tables 155 and 156, there were no significant increases in any of the kidney metabolic markers after antisense oligonucleotide treatment.

Where [8] appears, read: day-14 (before start of treatment).

In the case of “416825 (antisense GCCCTTCATGTCTAGGTCCA; 5-10-5 gapmer, further chemistry not given here) [compound 416825]”, the “Half-Life in the liver” value in data set [1] is on record as 16 days. Also, the “Half-life in the liver and kidney” value in data set [2] came to 16 days. In data set [3], the “Percent change: Body weight” value is on record as −18%, the “Percent change in organ weight: Kidney” value was “+25%”, the “Percent change in organ weight: Liver” value was “+20%” and the “Percent change in organ weight: Spleen” value is “+245%”. Also, in data set [4] (2 weeks), the “Percent change in kidney weight” value is −12%, the “Percent change in liver weight” value is “+5%” and the “Percent change in spleen weight” value was −12%. Further, in data set [4] (4 weeks), the “Percent change in kidney weight” value was −12%, the “Percent change in liver weight” value is listed as “+22%” and the “Percent change in spleen weight” value was “+19%”. Moreover, in data set [4] (6 weeks), the “Percent change in kidney weight” value is −11%, the “Percent change in liver weight” value is “+13%” and the “Percent change in spleen weight” value is given as “+21%”.

“416826 (antisense ATGCCCTTCATGTCTAGGTC; 5-10-5 gapmer, further chemistry not given here) [compound 416826]”: in data set [1], the “Half-Life in the liver” value is listed as 13 days. Besides, the “Half-life in the liver and kidney” value in data set [2] is recorded as 13 days. For the same substance, in data set [3], the “Percent change: Body weight” value is listed as −40%, the “Percent change in organ weight: Kidney” value is reported as “+44%”, the “Percent change in organ weight: Liver” value is “+81%” and the “Percent change in organ weight: Spleen” value was “+537%”. Moreover, in data set [4] (2 weeks), the “Percent change in kidney weight” value is −13%, the “Percent change in liver weight” value was “+10%” and the “Percent change in spleen weight” value is reported as −12%. Also, in data set [4] (4 weeks), the “Percent change in kidney weight” value was −7%, the “Percent change in liver weight” value was “+32%” and the “Percent change in spleen weight” value is given as −5%. In data set [4] (6 weeks), the “Percent change in kidney weight” value was −22%, the “Percent change in liver weight” value was “+33%” and the “Percent change in spleen weight” value is given as “+22%”.

Consider “416838 (antisense GCAACCGGGATGATGAGTGC; 5-10-5 gapmer, further chemistry not given here) [compound 416838]”, for which the “Half-Life in the liver” value in data set [1] worked out at 13 days. Also, in data set [2], the “Half-life in the liver and kidney” value worked out at 13 days. In data set [3], the “Percent change: Body weight” value is recorded as −23%, the “Percent change in organ weight: Kidney” value is −0.5%, the “Percent change in organ weight: Liver” value is listed as “+8%” and the “Percent change in organ weight: Spleen” value is reported as “+212%”. In data set [4] (2 weeks), the “Percent change in kidney weight” value is listed as −2%, the “Percent change in liver weight” value is reported as “+8%” and the “Percent change in spleen weight” value is recorded as “+21%”. Moreover, in data set [4] (4 weeks), the “Percent change in kidney weight” value is given as −12%, the “Percent change in liver weight” value was −6% and the “Percent change in spleen weight” value is reported as −8%. Moreover, in data set [4] (6 weeks), the “Percent change in kidney weight” value was −8%, the “Percent change in liver weight” value came to 0% and the “Percent change in spleen weight” value is reported as “+9%”.

For “416864 (antisense GGCAGCGGACGGCATTGGTG; 5-10-5 gapmer, further chemistry not given here) [compound 416864]”, the “Half-Life in the liver” value in data set [1] is 13 days. In addition, the “Half-life in the liver and kidney” value in data set [2] is listed as 13 days. Moreover, in data set [3], the “Percent change: Body weight” value is −24%, the “Percent change in organ weight: Kidney” value is “+16%”, the “Percent change in organ weight: Liver” value is “+16%” and the “Percent change in organ weight: Spleen” value is on record as “+204%”. For the same substance, in data set [4] (2 weeks), the “Percent change in kidney weight” value is listed as −4%, the “Percent change in liver weight” value is on record as −2% and the “Percent change in spleen weight” value is on record as −10%. For the same substance, in data set [4] (4 weeks), the “Percent change in kidney weight” value was −9%, the “Percent change in liver weight” value is “+2%” and the “Percent change in spleen weight” value is given as −2%. In data set [4] (6 weeks), the “Percent change in kidney weight” value is −15%, the “Percent change in liver weight” value is −5% and the “Percent change in spleen weight” value is −6%.

As to “416892 (antisense GCCCTTCATGTCTAGGTCCA; 3-14-3 chimeric gapmer, further chemistry not given here) [compound 416892]”, the “Half-Life in the liver” value in data set [1] is 12 days. In addition, the “Half-life in the liver and kidney” value in data set [2] came to 12 days. For the same substance, in data set [3], the “Percent change: Body weight” value is on record as −39%, the “Percent change in organ weight: Kidney” value is “+32%”, the “Percent change in organ weight: Liver” value was “+38%” and the “Percent change in organ weight: Spleen” value was “+151%”. Moreover, in data set [4] (2 weeks), the “Percent change in kidney weight” value is reported as “+2%”, the “Percent change in liver weight” value was “+35%” and the “Percent change in spleen weight” value is recorded as “+24%”. Besides, in data set [4] (4 weeks), the “Percent change in kidney weight” value is −3%, the “Percent change in liver weight” value is listed as “+88%” and the “Percent change in spleen weight” value was “+30%”. Also, in data set [4] (6 weeks), the “Percent change in kidney weight” value is “+19%”, the “Percent change in liver weight” value was “+95%” and the “Percent change in spleen weight” value is given as “+65%”.

As to “ISIS 449711: 3-8-3, 4-8-4, 2-10-2, 3-10-3 or 4-10-4 MOE microwalk gapmer (Table 46) (antisense eA*e[5mC]*dA*dG*dT*dT*dT*d[5mC]*dT*dG*dG*d[5mC]*eA*eG)”, the “Spleen weight” value in data set [5] (cynomolgus monkeys, 25 mg/kg, day 55, compared to the PBS control) was “caused increase in spleen weight”; in data set [5] (day 55, after euthanasia), 0.32. Besides, the body weight in data set [5] (day 1) is on record as 2123 g; in data set [5] (day 8), 2123 g; in data set [5] (day 15) it was 2103 g; in data set [5] (day 22), 2171 g; in data set [5] (day 29) it was 2203 g; in data set [5] (day 36), 2227 g. Further, the body weight in data set [5] (day 43) is recorded as 2251 g; in data set [5] (day 50), 2227 g; in data set [5] (day −7), 2105 g; in data set [5] (day −14), 2049 g. The substance further came in with a Kidney weight in data set [5] (day 55, after euthanasia) of 0.54. For the same substance, the Liver weight in data set [5] (day 55, after euthanasia) is given as 2.6. Also, the IFN-γ level in data set [6] (day 55) was found to be 22 pg/mL; in data set [6] (setting [8]) it was 29 pg/mL. For the same substance, the results for the IL-1ß level in data set [6] (day 55) and in data set [6] (setting [8]) were 146 pg/mL and 79 pg/mL, respectively. In addition, the IL-6 level in data set [6] (day 55) is given as 7 pg/mL; in data set [6] (setting [8]) it was 2 pg/mL. In addition, the values for the IL-8 level in data set [6] (day 55) and in data set [6] (setting [8]) were 110 pg/mL and 156 pg/mL, respectively. The MCP-1 level in data set [6] (day 55) came out at 469 pg/mL; in data set [6] (setting [8]), 264 pg/mL. The MIP-1ß level in data set [6] (day 55) was 91 pg/mL; in data set [6] (setting [8]) it was 24 pg/mL. The MIP-1α level in data set [6] (day 55) amounted to 17 pg/mL; in data set [6] (setting [8]), 20 pg/mL. Further, the RANTES level in data set [6] (day 55) is on record as 3029 pg/mL; in data set [6] (setting [8]), 3687 pg/mL. Further, the values for the TNF-α level in data set [6] (day 55) and in data set [6] (setting [8]) were 31 pg/mL and 6 pg/mL, respectively. In addition, the BUN levels in data set [7] (Day 31) amounted to 20 mg/dL; in data set [7] (Day 55) it was 23 mg/dL; in data set [7] (Day −5 (before start of treatment)), 22 mg/dL; in data set [7] (Day −14 (before start of treatment)), 26 mg/dL. In addition, in data set [7] (urine, day 49), the Urine protein/creatinine ratio was determined as 0.01.
